Laboratory results taken from patent US8080575B2, “Gamma-lactam compounds for promoting bone growth” (Osteogenex Inc., priority 2008, dated 2011).

Experiments:
C57BL/6 mice [1] = experiment: Serum osteocalcin (biochemical marker of bone formation) measured by EIA Elisa in mice treated daily i.p. for 30 days; format: in vivo; conditions: four month old male C57BL/6 mice, fraction
Method: (§1) Four month old male C57BL/6 mice were treated daily with saline vehicle or the sclerostin inhibitor of Formula Ib:
(§2) [drawing 9] at low, mid, or high doses (via i.p) for 30 days. Study endpoints included a biochemical marker of bone formation, osteocalcin measured by EIA Elisa, and measurement of trabecular bone volume by mico-CT analysis on the proximal tibia.

C57BL/6 mice [2] = experiment: Trabecular bone volume by micro-CT analysis on the proximal tibia in mice treated daily i.p. for 30 days; format: in vivo; conditions: four month old male C57BL/6 mice
Method: as §1, §2

## O=C1CCCN1c1ccccc1O [Formula Ib]
C57BL/6 mice [1]; 0.5 mg/kg (C), also printed as 4%
  increase in serum osteocalcin over baseline: 0.04
C57BL/6 mice [1]; 2 mg/kg (B), also printed as 24%
  increase in serum osteocalcin over baseline: 0.24
C57BL/6 mice [1]; 10 mg/kg (A), also printed as 27%
  increase in serum osteocalcin over baseline: 0.27
C57BL/6 mice [2]; 0.5 mg/kg (C)
  percent change in tibia long bone volume increase versus saline controls: 13%
C57BL/6 mice [2]; 2 mg/kg (B)
  percent change in tibia long bone volume increase versus saline controls: 40%
C57BL/6 mice [2]; 10 mg/kg (A)
  percent change in tibia long bone volume increase versus saline controls: 69%
